Three compounds from the NIST ThermoML archive (doi:10.1016/j.fluid.2006.08.004) can be followed below.

SMILES strings stand for the structures. ± gives the expanded uncertainty stated by the source.

Series [1] in a line: refractive index (Na D-line) (dimensionless). Conditions: 298.15 K; 101.33 kPa; Liquid; Standard Abbe refractometry.
For series [2] the following is noted: Liquid; for mass density: 298.15 K, 101.33 kPa; for Normal boiling temperature: Ebulliometric method (Recirculating still).

A word on the refractive index: it is a measure of how strongly the sample bends light. A word on the mass density: it is mass per unit of volume. For the compound `CC(C)OC(C)C` [diisopropyl ether], the refractive index in series [1] came to 1.36512 ± 0.0007. In series [2], the mass density is on record as 718.37 ± 1.2 kg/m3 and the Normal boiling temperature was 68.38 ± 0.1 °C.
The like results for `CC(C)CC(C)(C)C` [2,2,4-trimethylpentane] were, in that order, 1.38887 ± 0.00068, 687.72 ± 0.65 kg/m3 and 99.18 ± 0.01 °C.
With `CCO` [ethanol], the refractive index in series [1] was 1.35926 ± 0.00068. Also, in series [2], the mass density is listed as 785.09 ± 0.25 kg/m3 and the Normal boiling temperature worked out at 78.29 ± 0.01 °C.
